In ChEMBL document CHEMBL1821674, “Design, synthesis and biological evaluation of novel nitroaromatic compounds as potent glutathione reductase inhibitors” (Bioorg Med Chem Lett, 2011):

Tests used:
[1] = target: T1, Glutathione reductase, mitochondrial (Homo sapiens, UniProt P00390); assay: Inhibition of human erythrocyte Glutathione reductase
T1 sequence (P00390 whole entry): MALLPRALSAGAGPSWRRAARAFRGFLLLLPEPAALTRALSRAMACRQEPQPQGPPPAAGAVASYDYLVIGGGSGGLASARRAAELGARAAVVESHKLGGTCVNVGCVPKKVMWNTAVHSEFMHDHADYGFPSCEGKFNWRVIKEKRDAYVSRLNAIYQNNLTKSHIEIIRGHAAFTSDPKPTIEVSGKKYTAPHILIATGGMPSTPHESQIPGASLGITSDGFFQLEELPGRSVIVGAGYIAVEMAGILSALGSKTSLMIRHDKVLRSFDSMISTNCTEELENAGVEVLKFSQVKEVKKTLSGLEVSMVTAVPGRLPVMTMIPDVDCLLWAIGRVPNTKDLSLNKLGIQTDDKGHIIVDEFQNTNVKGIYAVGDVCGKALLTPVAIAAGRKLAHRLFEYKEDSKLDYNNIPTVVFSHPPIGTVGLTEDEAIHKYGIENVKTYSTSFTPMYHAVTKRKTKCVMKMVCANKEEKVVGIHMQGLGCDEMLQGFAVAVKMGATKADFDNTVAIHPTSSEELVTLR

[2] = target: T1, Glutathione reductase, mitochondrial
[3] = target: T1, Glutathione reductase, mitochondrial; assay: Non-Competitive inhibition of human erythrocyte Glutathione reductase using GSSG substrate by Lineweaver-Burk plot analysis

IC50 [1] [µM]	Ki [3] [µM]	SMILES	Ki [2] [µM]
0.344	–	O=C(O)CC[C@H](NC(=O)c1ccc([N+](=O)[O-])cc1)C(=O)O	0.211
13.3	–	CC[C@H](CO)NCc1ccc([N+](=O)[O-])cc1	4.57
15.4	4.16	CC(C)(C)OC(=O)N[C@@H](CCCCNC(=O)OCc1ccccc1Cl)C(=O)Oc1ccc([N+](=O)[O-])cc1	–
53.7	–	N[C@@H](CCC(=O)O)C(=O)O [GLUTAMIC ACID]	42.7

SMILES	IC50 [1] [µM]	Ki [3] [µM]	Ki [2] [µM]
NCCCC[C@H](N)C(=O)O [LYSINE]	61.2	–	54.6
COC(=O)C1=C(C)NC(C)=C(C(=O)OC)C1c1ccccc1[N+](=O)[O-] [NIFEDIPINE]	23.4	–	17.4
O=[N+]([O-])c1ccccc1 [NITROBENZENE]	547	–	274
